Reference: PubChem BioAssay (NCI)
Several values for one entry are separate records, joined by “and”; a condition that tells them apart may be missing. Equal entries are not always repeated.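 Tested at 5 concentrations; 48 h exposure; 96-well plates; endpoints linearly interpolated, else capped at highest concentration. At the TGI there is no net growth.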

Experiments:
Test in all cases: NCI-60 cell line screen, 48 h
SW-620 colon = test system: SW-620 colon
NCI-H23 lung = test system: NCI-H23 lung
IGROV1 ovarian = test system: IGROV1 ovarian
SK-MEL-5 melanoma = test system: SK-MEL-5 melanoma
OVCAR-4 ovarian = test system: OVCAR-4 ovarian
SF-295 CNS = test system: SF-295 CNS
A498 renal = test system: A498 renal
HCT-15 colon = test system: HCT-15 colon
OVCAR-3 ovarian = test system: OVCAR-3 ovarian
MDA-N = test system: MDA-N
PC-3 prostate = test system: PC-3 prostate
SF-268 CNS = test system: SF-268 CNS
M14 melanoma = test system: M14 melanoma
SN12C renal = test system: SN12C renal
LOX IMVI melanoma = test system: LOX IMVI melanoma
ACHN renal = test system: ACHN renal
HOP-92 NSCLC = test system: HOP-92 NSCLC
SNB-75 CNS = test system: SNB-75 CNS
DU-145 prostate = test system: DU-145 prostate

Measured: TGI

O=C1C2CC=CCC2C(=O)N1n1c(-c2ccccc2)n[nH]c1=O (stereo not given)
not listed: SNB-75 CNS | DU-145 prostate
> 100 µM: all other assays above

Cc1cc(N(CCC#N)CCC#N)ccc1/C=C/C(=O)Nc1cccc(Cl)c1
not listed: MDA-N | PC-3 prostate | DU-145 prostate
> 100 µM: all other assays above

CCOc1ccc2nc(NC(=O)c3c/c(=N\NC(=O)C[N+](C)(C)C)c4ccc(O)cc4o3)sc2c1
14.5 µM: SN12C renal
6.99 µM: HOP-92 NSCLC
3.53 µM: SNB-75 CNS
7.13 µM: NCI-H23 lung
5.28 µM: SW-620 colon
1.85 µM: SK-MEL-5 melanoma
13.8 µM: ACHN renal
11.1 µM: SF-295 CNS
0.402 µM: OVCAR-3 ovarian
28 µM: A498 renal
20 µM: HCT-15 colon
5.73 µM: LOX IMVI melanoma
11.6 µM: SF-268 CNS
8.64 µM: IGROV1 ovarian
3.1 µM: M14 melanoma
5.96 µM: OVCAR-4 ovarian

CCOC1(COP(=O)(OCc2ccccc2)OCc2ccccc2)COC(COP(=O)(OCc2ccccc2)OCc2ccccc2)(OCC)CO1 (stereo not given)
not listed: A498 renal | MDA-N | PC-3 prostate | SNB-75 CNS | DU-145 prostate
> 100 µM: all other assays above

COc1ccc(NS(=O)CCCc2ccccc2)cc1 (stereo not given)
not listed: A498 renal | PC-3 prostate | M14 melanoma | HOP-92 NSCLC | SNB-75 CNS
> 100 µM: all other assays above

CNC(=O)N1CN(c2ccccc2)C2(CCN(CCCC(=O)c3ccc(F)cc3)CC2)C1=O
89.1 µM: IGROV1 ovarian
75.4 µM: SN12C renal
41.6 µM: OVCAR-3 ovarian
33.6 µM: HCT-15 colon
26.7 µM: SK-MEL-5 melanoma
> 100 µM: SW-620 colon | DU-145 prostate | PC-3 prostate | SF-268 CNS | SNB-75 CNS
75.5 µM: ACHN renal
40.8 µM: M14 melanoma
31 µM: SF-295 CNS
87.5 µM: NCI-H23 lung
37.1 µM: LOX IMVI melanoma

COC(=O)[C@@H]1CN(C(=O)CCc2ccccc2)C(=O)N1C(=O)OCc1ccccc1
not listed: PC-3 prostate
> 100 µM: all other assays above

COc1cccc(/C=C2/Sc3scc(-c4ccccc4)[n+]3C2=O)c1O
40.9 µM: ACHN renal
95.3 µM: OVCAR-3 ovarian
43.8 µM: SW-620 colon
56.9 µM: DU-145 prostate
29.9 µM: HCT-15 colon
38.9 µM: NCI-H23 lung | IGROV1 ovarian
36.8 µM: SN12C renal
74.4 µM: OVCAR-4 ovarian
31.1 µM: SK-MEL-5 melanoma
51.2 µM: HOP-92 NSCLC
36.4 µM: LOX IMVI melanoma
not listed: A498 renal | MDA-N
> 100 µM: all other assays above

CN(C)CCCNC(=O)N/N=C/c1cccc([N+](=O)[O-])c1
not listed: A498 renal | MDA-N | PC-3 prostate | HOP-92 NSCLC | DU-145 prostate
> 100 µM: all other assays above

CC12NN=NC1C(=O)NC2=O (stereo not given)
not listed: MDA-N | PC-3 prostate | M14 melanoma | DU-145 prostate
> 100 µM: all other assays above

Cc1ccc(/C=N/Nc2cnccn2)s1
not listed: A498 renal | DU-145 prostate
> 100 µM: all other assays above

COc1cc(OC)c(/C=C2\N=C(C)N(Nc3nnc(NN4C(=O)/C(=C/c5c(OC)cc(OC)cc5OC)N=C4C)c4ccccc34)C2=O)c(OC)c1
not listed: OVCAR-3 ovarian | MDA-N | PC-3 prostate | DU-145 prostate
> 100 µM: all other assays above

COc1ccc2[nH]c3c(c2c1)CCn1c-3nc2ccccc2c1=O
not listed: NCI-H23 lung | A498 renal | OVCAR-3 ovarian | LOX IMVI melanoma | HOP-92 NSCLC | DU-145 prostate
> 25 µM: all other assays above

O=c1cc(-c2ccccc2)[nH]c2cc(O)ccc12
34.6 µM: LOX IMVI melanoma
30.6 µM: HCT-15 colon
> 100 µM: SF-295 CNS | A498 renal | SF-268 CNS
87.6 µM: NCI-H23 lung
39 µM: M14 melanoma
70.3 µM: HOP-92 NSCLC
65.6 µM: IGROV1 ovarian
72.5 µM: SNB-75 CNS
31.3 µM: SW-620 colon
58.1 µM: OVCAR-4 ovarian
53.7 µM: ACHN renal
89.6 µM: SN12C renal
83.4 µM: SK-MEL-5 melanoma

CN(CCO)c1nc2c(c(=O)[nH]1)CCC2
not listed: A498 renal | MDA-N | PC-3 prostate | DU-145 prostate
> 100 µM: all other assays above

O=C(c1ccccc1)c1ccc(COc2ccc(C(c3c(O)c4ccccc4oc3=O)c3c(O)c4ccccc4oc3=O)cc2)cc1
62 µM: MDA-N
28.5 µM: IGROV1 ovarian
56.5 µM: LOX IMVI melanoma
37.6 µM: NCI-H23 lung
34.5 µM: OVCAR-3 ovarian
38.1 µM: ACHN renal
37.2 µM: SK-MEL-5 melanoma
73 µM: OVCAR-4 ovarian
> 100 µM: DU-145 prostate | HCT-15 colon | SF-268 CNS | SN12C renal
44.1 µM: SF-295 CNS
32.7 µM: SNB-75 CNS
34.9 µM: PC-3 prostate
80.4 µM: SW-620 colon

COc1ccc(-c2c(N)n(-c3nc4ccccc4s3)c(=O)c3cc([N+](=O)[O-])ccc23)cc1
56.6 µM: SF-268 CNS
69.9 µM: ACHN renal
97.1 µM: SF-295 CNS
> 100 µM: SW-620 colon | A498 renal | HCT-15 colon | MDA-N | PC-3 prostate | HOP-92 NSCLC
35.4 µM: OVCAR-3 ovarian
24.7 µM: SNB-75 CNS
48.3 µM: LOX IMVI melanoma
45.2 µM: NCI-H23 lung
68.4 µM: OVCAR-4 ovarian
47.6 µM: M14 melanoma

COc1cc2cc(C(=O)N3CC(CCl)c4ccc(O)cc43)[nH]c2c(OC)c1OC (stereo not given)
0.000396 µM: SK-MEL-5 melanoma
0.015 µM: OVCAR-3 ovarian
0.137 µM: SW-620 colon
0.000211 µM: ACHN renal
0.0412 µM: HCT-15 colon
0.812 µM: NCI-H23 lung
0.0652 µM: SNB-75 CNS
0.00398 µM: SF-295 CNS
0.136 µM: LOX IMVI melanoma
0.145 µM: SF-268 CNS
0.12 µM: M14 melanoma
0.661 µM: DU-145 prostate
0.148 µM and 0.104 µM: SN12C renal

C/C(=N\Nc1nc2ccccc2s1)c1ncccn1
1.1 µM: HOP-92 NSCLC
> 100 µM: DU-145 prostate | A498 renal
0.219 µM: SK-MEL-5 melanoma
5.58 µM: SNB-75 CNS
5.12 µM: SF-268 CNS
2.45 µM: HCT-15 colon
0.177 µM: ACHN renal
3.78 µM: SF-295 CNS
11.1 µM: PC-3 prostate
> 69.2 µM: SW-620 colon
1.11 µM: NCI-H23 lung
0.923 µM: IGROV1 ovarian
2.06 µM: OVCAR-3 ovarian
25.2 µM: SN12C renal

CCOC(=O)CSc1nc(-c2ccccc2)c(C#N)c(=O)[nH]1
not listed: MDA-N | LOX IMVI melanoma
> 100 µM: all other assays above

CSCC1CC(c2ccc(Cl)cc2)=NO1 (stereo not given)
not listed: MDA-N | PC-3 prostate | LOX IMVI melanoma | DU-145 prostate
> 100 µM: all other assays above

COC(=O)c1c2n(c3ccccc13)C[C@H]1OC(C)(C)O[C@@H]21
not listed: MDA-N
> 100 µM: all other assays above

N#Cc1c(N)oc(-c2cccc([N+](=O)[O-])c2)c1C#N
62 µM: SW-620 colon
> 100 µM: DU-145 prostate | SF-295 CNS | PC-3 prostate | SF-268 CNS | M14 melanoma
90.6 µM: SN12C renal
98.2 µM: SNB-75 CNS
44 µM: NCI-H23 lung
85.6 µM: LOX IMVI melanoma
30.7 µM: HCT-15 colon
61.7 µM: A498 renal
65.3 µM: IGROV1 ovarian
34.8 µM: ACHN renal
37.7 µM: SK-MEL-5 melanoma | HOP-92 NSCLC

Cn1c(/C=C(\O)c2ccc(Cl)cc2)nc2ccccc21
92.4 µM: SK-MEL-5 melanoma
not listed: A498 renal | MDA-N | PC-3 prostate | HOP-92 NSCLC | DU-145 prostate
> 100 µM: all other assays above

O=C(Cn1c2c(c3ccccc31)CCCC2)NC1CCCCC1
not listed: HOP-92 NSCLC | SNB-75 CNS | DU-145 prostate
> 100 µM: all other assays above

CCOC(=O)c1nc2ccc([N+](=O)[O-])cc2c2c1CCO2
not listed: MDA-N | PC-3 prostate | HOP-92 NSCLC | DU-145 prostate
> 100 µM: all other assays above

COc1ccc(NC(=O)C/C(C)=N\N=C(N)N)c([N+](=O)[O-])c1
not listed: SW-620 colon | MDA-N | PC-3 prostate | DU-145 prostate
> 100 µM: all other assays above

COC(=O)C1CC2(CCC1=O)Cc1ccccc1C2=O (stereo not given)
not listed: A498 renal | OVCAR-3 ovarian | HOP-92 NSCLC
> 100 µM: all other assays above

CC(=O)C1=CSC2[C@H](NC(=O)Cc3ccccc3)C(=O)N2C1C(=O)OC(c1ccccc1)c1ccccc1 (stereo not given in full)
not listed: HCT-15 colon | MDA-N | PC-3 prostate | LOX IMVI melanoma | ACHN renal | DU-145 prostate
> 100 µM: all other assays above
